Source: patent publication US6540996B1, “Compound screening methods” (priority 1999, dated 2003)

Experiments:
[1] = test system: C. elegans wild-type worms and mutant strain unc-31; assay: effect on pharynx pumping behaviour; assay type: in vivo
Method: The effect of thapsigargin on pharynx pumping behaviour was also determined. In wild-type worms, all animals stopped pumping after 10 minutes.

[2] = test system: C. elegans strain UG530 (harboring plasmid pGK28); assay: thapsigargin sensitivity of worms carrying the pGK28 (Phe259Val SERCA) transgene; assay type: in vivo; conditions: for stage reached by progeny on thapsigargin: 10 μl drops of 5 to 0.05 mM thapsigargin in DMSO, 5 days
Method: FIG. 3 illustrates the growth of C. elegans strain UG530 (strain harboring plasmid pGK28) on different concentrations of thapsigargin. The stage of the progeny was determined 5 days after adults were put on the plates. […] These were differentiated based on a GFP marker also present on this transgene.
The effect of thapsigargin on worms carrying a pGK28 transgene was measured in the following way: 10 μl of thapsigargin dissolved in DMSO (5, 2.5, 1, 0.5, 0.25, 0.1, and 0.05 mM respectively) was added onto a drop of E. coli strain OP50cs2 in 12-well plates. The wells with compounds were placed at 10 C. overnight, after which […] young adults were added to the wells. The pharynx pumping rate and movement behaviour was scored for the ten worms after 10 minutes and after one hour (short term effect). Furthermore the wells were scored for protruding vulva and rectum, production of progeny (few eggs in body) after one day (mid-term-effects), and for progeny after four days (long term effect)

[3] = test system: C. elegans strains unc-31 and srf-3; assay: production of progeny after thapsigargin treatment in different C. elegans strains; assay type: in vivo
Method: The effect of thapsigargin on the production of progeny was determined for a number of different C. elegans strains. The numbers of progeny produced following thapsigargin treatment was counted for an average of 15 animals, the results are summarised as follows: […]

C. elegans [4] = assay: liquid assay: compound administered to the worm in liquid culture; assay type: in vivo
From the text: (§1) Using two kinds of assays, the optimal concentration of compounds that inhibit the activity SERCA has been determined. The first assay is designated the drop or plate assay in which the nematodes are fed E. coli strains pre-loaded with the compound. In a second assay, the compound is administrated to the worm in liquid culture.

SERCA Phe256Val = conditions: substitution Phe256Val in hamsters (Yu et al., 1999); cited from earlier work
C. elegans [5] = assay: plate (drop) assay: nematodes fed E. coli lawn pre-loaded with the compound; assay type: in vivo
Method: as §1
A standard plate drop assay is performed according to the following protocol. 4 ml NGM agar (see “The nematode C. elegans” Ed. by William B. Wood and the Community of C. elegans Researchers, CSHL Press, 1988, pg589) is into 3 cm plates and seeded with approximately 5 μl of an E. coli overnight culture and grown preferably for one week at room temperature. Approximately 10 μl of test compound dissolved in DMSO or other suitable solvent is pipetted onto the bacterial lawn so that the lawn is covered completely. After overnight soaking in or compound, one C. elegans (L4 stage) per plate is put onto the bacterial lawn. Plates are incubated at 21° C. and checked after some hours.

[6] = mutant strain unc-31, 1 mM thapsigargin

With `C/C=C(/C)C(=O)O[C@H]1C(C)=C2[C@H]([C@@H]1OC(=O)CCCCCCC)[C@@](C)(OC(C)=O)C[C@H](OC(=O)CCC)[C@@]1(O)[C@H]2OC(=O)[C@@]1(C)O` [thapsigargin] the “pumping speed after restart” value [1, 6] was “one third of normal speed”, the restart of pumping [1, 6] was “some start again after half an hour” and the “time after which all worms stopped pumping” value [1, 6] was 10 min. For the same compound, the “time after which all animals stopped pumping” value ([1]; wild-type worms) was 10 min, the “stage reached by progeny on thapsigargin” value ([2]; GFP-animals harboring pGK28 (Phe259Val SERCA)) was “grew up to adult or L4” and the “amount of progeny on thapsigargin” value ([2]; nematodes harboring the Phe259Val SERCA mutant compared with wild-type) was “slightly more progeny than wild-type”. The “stage reached by progeny on thapsigargin” value ([2]; non-GFP animals (not harboring the mutated SERCA)) was “arrested at L1 and L2 and never grew up further than L3”, the “protruding vulva and rectum-phenotype” value ([2]; strain UG530 (harboring pGK28) treated with thapsigargin) was “not or were only occasionally observed” and the “protruding vulva and rectum-phenotype” value ([2]; wild-type nematodes treated with thapsigargin) was “very often observed”. The “number of progeny produced” value ([3]; strain srf-3, 1 mM thapsigargin, average of 15 animals (control 50)) was 18,3, the “number of progeny produced” value ([3]; strain unc-31, 0.5 mM thapsigargin, average of 15 animals (control 132)) was 35 and the “number of progeny produced” value ([3]; strain unc-31, 1 mM thapsigargin, average of 15 animals (control 132)) was 5,6. The “size and movement of the worms” value (C. elegans [4]; 100, 50 and 20 μM) was “small worms which show slow and loopy movement”, the vulva and progeny (C. elegans [4]; 100, 50 and 20 μM) was “protruding vulva, and no progeny (or no progeny that grows up)” and the progeny and growth (C. elegans [4]; lower concentrations 10 μM and 5 μM) was “reduced number of progeny and delayed growth”. The “resistance to thapsigargin inhibition” value (SERCA Phe256Val) was 40 fold, the “appearance and movement of the worms” value (C. elegans [5]; 5 μM, 2.5 μM and 1.25 μM) was “pale and thin and have a slow and irregular movement, with an increased amplitude” and the brood size (C. elegans [5]; 5 μM, 2.5 μM and 1.25 μM) was “very small”. For the same compound, the “gonad, eggs and vulva” value (C. elegans [5]; 5 μM, 2.5 μM and 1.25 μM) was “defective gonad with only very few eggs, and a protruding vulva”, the “plate drop response, backing, pumping, constipation” value (C. elegans [5]; 5 μM, 2.5 μM and 1.25 μM) was “No plate drop response is observed, and the worms show poor backing, reduced pumping and strong constipation” and the rectum (C. elegans [5]; 5 μM, 2.5 μM and 1.25 μM) was “Some worms also have a protruding rectum”. The “restart of pharynx pumping” value (C. elegans [5]; 5 μM, 2.5 μM and 1.25 μM) was “Within an hour the worms restart pumping, although at a low level”, the “time until the nematode stops pharynx pumping” value (C. elegans [5]; 5 μM, 2.5 μM and 1.25 μM) was at most 10 min and the “stage reached by progeny” value (C. elegans [5]; 5 μM, 2.5 μM and 1.25 μM, after four days) was “Progeny reaches L2 stage only after four days”. The brood size (C. elegans [5]; lower concentrations 0.5 μM, 0.25 μM, 0.125 μM) was “reduced brood size”.

With `O=C1C=CC(=O)C=C1` [1,4-benzoquinone] the “observable effect at the highest concentration tested” value (C. elegans [5]; 100 mM drop, 500 μM end concentration) was “did not result in a clear observable effect”.

For `CC(C)(C)c1cc(O)c(C(C)(C)C)cc1O` [2,5-di-tert butylhydroquinone], the “phenotype of worms and progeny” value (C. elegans [4]; 1 mM) was “progeny exhibiting delayed growth and the worms be observed to be thinner” and the “phenotype of the worms” value (C. elegans [5]; 500 μM) was “pale, starved, thin worms with slow movement, defective gonad, constipated and reduced brood size”.

For `C/C=C(/C)C(=O)O[C@H]1C(C)=C2[C@H]([C@@H]1OC(=O)CCCCC)[C@@](C)(OC(C)=O)C[C@H](OC(=O)CCC)[C@@]1(O)[C@H]2OC(=O)[C@@]1(C)O` [Thapsigargicin], the “phenotype of worms and progeny” value (C. elegans [4]; 1000 μM, 250 μM, 62.5 μM and 16 μM) was “small worms with slow and loopy movement, a protruding vulva, and no progeny (or no progeny that grows up)”, the growth and progeny (C. elegans [4]; lower concentration 10 μM) was “delayed growth and reduced progeny” and the brood size (C. elegans [5]; lower concentrations 3 μM and 1.5 μM) was “slightly reduced brood size”.
